Results reported in PubChem BioAssay (NCI).
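Test compounds were applied to cells in 96-well plates for 48 hours at 5 doses. TGI: concentration producing complete growth inhibition.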

Experiments:
Experiment in all cases: growth of human tumour cells (NCI), 48 h
786-0 renal = tested on: 786-0 renal
ACHN renal = tested on: ACHN renal
COLO 205 colon = tested on: COLO 205 colon
HCT-116 colon = tested on: HCT-116 colon
HS 578T breast = tested on: HS 578T breast
IGROV1 ovarian = tested on: IGROV1 ovarian
K-562 leukemia = tested on: K-562 leukemia
M14 melanoma = tested on: M14 melanoma
MDA-MB-231 breast = tested on: MDA-MB-231 breast
MDA-MB-435 = tested on: MDA-MB-435
MDA-N = tested on: MDA-N
RPMI-8226 leukemia = tested on: RPMI-8226 leukemia
SW-620 colon = tested on: SW-620 colon
U251 CNS = tested on: U251 CNS
A498 renal = tested on: A498 renal
NCI-H460 lung = tested on: NCI-H460 lung
SK-MEL-5 melanoma = tested on: SK-MEL-5 melanoma
HOP-92 NSCLC = tested on: HOP-92 NSCLC

Compound	TGI (786-0 renal)	TGI (ACHN renal)	TGI (COLO 205 colon)	TGI (HCT-116 colon)	TGI (HS 578T breast)	TGI (IGROV1 ovarian)	TGI (K-562 leukemia)	TGI (M14 melanoma)	TGI (MDA-MB-231 breast)	TGI (MDA-MB-435)	TGI (MDA-N)	TGI (RPMI-8226 leukemia)	TGI (SW-620 colon)	TGI (U251 CNS)	TGI (A498 renal)	TGI (NCI-H460 lung)	TGI (SK-MEL-5 melanoma)	TGI (HOP-92 NSCLC)
C[C@@H]1S[C@H](c2c(F)cccc2Cl)n2c1nc1ccccc12	28.4 µM	> 100 µM	23.6 µM	16.5 µM	41.6 µM	59.5 µM	> 100 µM	42 µM	27 µM	25.1 µM	21.5 µM	40.2 µM	27.2 µM	22.7 µM				
C=C(C)C1CC[C@@](C)(O)[C@H](C#N)C1 (some centres undefined)	> 100 µM	> 100 µM	> 100 µM	> 100 µM	> 100 µM		> 100 µM	> 100 µM	> 100 µM	> 100 µM	> 100 µM	> 100 µM	> 100 µM	> 100 µM	> 100 µM	> 100 µM	> 100 µM	
CN(C)[C@@H]1C(=O)C(C(=O)NCNc2nc3n[nH]nc3c(=O)[nH]2)=C(O)[C@@]2(O)C(=O)C3=C(O)c4c(O)cccc4[C@@](C)(O)[C@H]3C[C@@H]12	> 100 µM	> 100 µM	57.4 µM	24.7 µM	53.5 µM	> 100 µM	> 16.9 µM	15.8 µM	> 100 µM	7.35 µM	14.5 µM	6.7 µM	> 56.2 µM	> 61.3 µM	> 100 µM	> 97.1 µM	10.9 µM	> 30 µM
O=C1Nc2ccc(Br)cc2/C1=N/S(=O)(=O)O	68.2 µM	> 100 µM	> 100 µM	> 100 µM	> 100 µM	> 100 µM	42.6 µM	> 100 µM	36 µM	22.7 µM	26.6 µM	47.6 µM	> 100 µM	> 100 µM	> 100 µM	> 100 µM	29.6 µM	> 100 µM
Cn1nnc2c(C(N)=S)ncn2c1=O	> 100 µM	> 100 µM	> 100 µM	> 100 µM	> 100 µM	> 100 µM	> 100 µM	> 100 µM	> 100 µM	> 100 µM	> 100 µM	> 100 µM	> 100 µM	> 100 µM	> 100 µM	> 100 µM	> 100 µM	> 100 µM
COCn1cc(C2=C(C)C(=O)C(C)=C(C)C2=O)cn1	32.2 µM	> 100 µM	> 100 µM	36.7 µM	> 100 µM	> 100 µM	42.6 µM	> 100 µM	40.8 µM	33.9 µM	> 100 µM	60.2 µM	> 100 µM		> 100 µM	> 100 µM	> 100 µM	37.5 µM
CC(=O)OCC1(C)C(O)CCC2(C)C1CCC1CC3CC12CCC3(O)CO (centres undefined)	> 100 µM	> 100 µM	> 100 µM	> 100 µM	> 100 µM	> 100 µM	> 100 µM	> 100 µM	> 100 µM	> 100 µM	> 100 µM	> 100 µM	> 100 µM	> 100 µM	8.59 µM	> 100 µM	> 100 µM	> 100 µM
COc1ccc(N2C(=O)C(Cl)C2c2cc3cc(Br)ccc3nc2Cl)cc1 (centres undefined)	18.5 µM	9.64 µM	9.11 µM	9.51 µM	> 25 µM	10.6 µM	> 25 µM	11 µM	9.1 µM	10.7 µM	15.7 µM	21.6 µM	16.2 µM		> 25 µM	12.2 µM	8.63 µM	18.3 µM
CCc1n[nH]c(=O)n1CC	> 100 µM	> 100 µM	> 100 µM	> 100 µM	> 100 µM	> 100 µM	> 100 µM		> 100 µM	> 100 µM	> 100 µM	> 100 µM	> 100 µM	> 100 µM	> 100 µM	> 100 µM	> 100 µM	> 100 µM
CCO/C(O)=C(/C(=N)N1CCOCC1)C(=O)NC(C)C	> 100 µM	> 100 µM	> 100 µM	> 100 µM	> 100 µM	> 100 µM	> 100 µM	> 100 µM	> 100 µM	> 100 µM	> 100 µM	> 100 µM	> 100 µM	> 100 µM	> 100 µM	> 100 µM		> 100 µM
CCN(CC)C1Oc2cc3c(cc2C(c2cc(OC)c(O)c(OC)c2)C1C)OCO3 (centres undefined)	29.1 µM	> 100 µM	31.8 µM	18.2 µM	50.9 µM	50 µM	17.4 µM	20.4 µM	73.7 µM	6.05 µM	4.8 µM	34.7 µM	20.9 µM	26.6 µM	64.8 µM	20.6 µM	30.7 µM	77.9 µM
CC1(C)CC[C@]2(C(=O)O)CC[C@]3(C)C(=CCC4=C5C[C@H](O)[C@H](O)[C@@](C)(CO)[C@@]5(C)CC[C@]43C)[C@@H]2C1	> 100 µM	> 100 µM	30 µM	> 100 µM	> 100 µM	> 100 µM	> 100 µM	> 100 µM	> 100 µM	> 100 µM	> 100 µM	> 100 µM	> 100 µM	> 100 µM	> 100 µM	81.8 µM	62.8 µM	> 100 µM
CC(=O)Nc1cc(Cl)cc(Cl)c1O	> 100 µM	> 100 µM	> 100 µM	> 100 µM	> 100 µM	> 100 µM	> 100 µM	> 100 µM	> 100 µM	> 100 µM	> 100 µM	> 100 µM	> 100 µM	> 100 µM	> 100 µM	> 100 µM	> 100 µM	> 100 µM
CCOC(=O)c1ncn(CCc2ccc(Cl)cc2)c1C	> 100 µM	> 100 µM	> 100 µM	> 100 µM	> 100 µM	> 100 µM	> 100 µM	> 100 µM	> 100 µM	> 100 µM	> 100 µM	> 100 µM	> 100 µM	> 100 µM	> 100 µM	> 100 µM	> 100 µM	> 100 µM
CC(=O)NS(=O)(=O)c1ccc(NCc2cccc3c(=O)c4ccc(Cl)cc4oc23)cc1	> 100 µM	> 100 µM	> 100 µM	> 100 µM	97.7 µM	> 100 µM	> 100 µM	> 100 µM	> 100 µM	> 100 µM	> 100 µM	> 100 µM	> 100 µM	> 100 µM	> 100 µM	51 µM	> 100 µM	69.7 µM
Cc1[nH]c(C)c(CN(C)C)c1CN(C)C	> 100 µM	> 100 µM	> 100 µM	> 100 µM	> 100 µM	> 100 µM	> 100 µM	> 100 µM	> 100 µM	> 100 µM	> 100 µM	> 100 µM	> 100 µM	> 100 µM	> 100 µM	> 100 µM	> 100 µM	> 100 µM
COc1ccccc1-n1nnc2c(N)nc(N)nc21	> 100 µM	> 100 µM	> 100 µM	> 100 µM	> 100 µM	> 100 µM	> 100 µM	> 100 µM	> 100 µM	> 100 µM	> 100 µM	> 100 µM	> 100 µM	> 100 µM	> 100 µM	> 100 µM	> 100 µM	> 100 µM
CCCCC(=O)/C=c1/cc(C)[nH]c2cccc3cnn1c32	> 100 µM	> 100 µM	> 100 µM	> 100 µM	> 100 µM	> 100 µM		> 100 µM	> 100 µM	> 100 µM	> 100 µM	> 100 µM	> 100 µM	> 100 µM	> 100 µM		> 100 µM	> 100 µM
CN1CCC2(c3ccccc3)CC(=O)/C(=C/c3ccc(Cl)c(Cl)c3)C1C2 (centres undefined)	5.35 µM	3.17 µM	4.2 µM	> 21 µM	> 45.7 µM	4.19 µM	7.28 µM	8.59 µM	3.21 µM	5.14 µM	13.9 µM	5.13 µM	> 21.6 µM	3.47 µM	12.8 µM	5.94 µM	8.37 µM	7.33 µM
C=C1N(S(=O)(=O)c2ccc(C)cc2)C(=O)OCC12CCCC2	> 100 µM	> 100 µM	> 100 µM	> 100 µM	> 100 µM	> 100 µM	> 100 µM	> 100 µM	> 100 µM	> 100 µM	> 100 µM	> 100 µM	> 100 µM	> 100 µM	> 100 µM	> 100 µM	94.6 µM	> 100 µM
CSC1=NN(C(C)=O)C(C(OC(C)=O)C(OC(C)=O)C(OC(C)=O)C(COC(C)=O)OC(C)=O)S1 (centres undefined)	> 100 µM	> 100 µM	> 100 µM	> 100 µM	> 100 µM	> 100 µM	> 100 µM	> 100 µM	> 100 µM	> 100 µM	> 100 µM	> 100 µM	> 100 µM	> 100 µM	> 100 µM	> 100 µM	> 100 µM	> 100 µM
[N-]=[N+]=NC1C(O)C(CO)OC1n1ccc(N)nc1=O (centres undefined)	> 625 µM	> 625 µM	> 568 µM	> 625 µM	> 625 µM	> 625 µM	> 625 µM	186 µM	> 564 µM	> 625 µM	> 625 µM	> 625 µM	> 625 µM	> 625 µM	> 625 µM	> 625 µM	> 625 µM	> 625 µM
COC(=O)c1cc(CC2Cc3cc4c(cc3C2=O)CCC4)cc2c1CCC2 (centres undefined)	> 100 µM	> 100 µM	> 100 µM	> 100 µM	> 100 µM	> 100 µM	> 100 µM	> 100 µM	> 100 µM	> 100 µM	> 100 µM	> 100 µM	> 100 µM	> 100 µM	> 100 µM	> 100 µM		
CSc1c(C#N)c(=O)n(N)c2c1c(C)nn2-c1ccccc1	> 100 µM		32.5 µM	56.2 µM	> 100 µM		87 µM	> 100 µM	57.9 µM	> 100 µM	> 100 µM	63.9 µM	> 100 µM	> 100 µM	65.8 µM	> 100 µM	28.7 µM	
Cc1ccc(N2C(=O)C3c4[nH]c5ccc(C)cc5c4C4CCC(C(C)(C)C)CC4C3C2=O)cc1 (centres undefined)	17.1 µM		> 100 µM	37.1 µM	44 µM	36.5 µM	16.1 µM	> 100 µM	26.7 µM	55.1 µM	70.1 µM	46.3 µM	58.7 µM	27.7 µM		20.4 µM	> 100 µM	52.1 µM
Cc1ccc(Sc2ccccc2C23OC(C)(C4C(=O)N(c5ccccc5)C(=O)C42)N(C)C3=O)cc1 (centres undefined)	> 100 µM	> 100 µM	> 100 µM	> 100 µM	> 100 µM	> 100 µM	> 100 µM	> 100 µM	> 100 µM	> 100 µM	> 100 µM		> 100 µM	> 100 µM	> 100 µM	> 100 µM	> 100 µM	> 100 µM
CCOC(=O)[C@@H]1[C@@H](c2ccccc2)N(C)O[C@@]1(c1ccccc1)C(F)(F)F	> 100 µM	> 100 µM	> 100 µM	> 100 µM	> 100 µM	> 100 µM		> 100 µM	> 100 µM	> 100 µM	> 100 µM	> 100 µM	> 100 µM	> 100 µM	> 100 µM		72.3 µM	> 100 µM
